Consider eight compounds from US20040121474A1, “Detection and evaluation of chemically-mediated and ligand-mediated t-cell activation using optophoretic analysis” (Genoptix, Inc, priority 2002, published 2004).

For data set [1], the system named is U937 cells. As to the kind of experiment: Escape velocity, PMA inhibition by bisindolymaleimide. In kind it is cell-based. Particulars: for Escape velocity Ave.: four hours. The text has this:
The objective of this experiment was to test the effect of bisindolymaleimide on cells exposed to PMA. Bisindolymaleimide is a Protein Kinase C inhibitor and should block the effect of PMA on U937 cells and their escape velocities. As shown in this and prior experiments, exposure of U937 cells to PMA results in an increase in the escape velocity of the cells. Therefore, it is anticipated that addition of bisindolymaleimide will reduce or eliminate the increase in escape velocity caused by PMA. This has in fact been observed in the data shown below.
Bisindolymaleimide was tested at two concentrations: 200 ng/ml and 50 ng/ml. Samples not treated with bisindolymaleimide received an equivalent amount of the carrier, MeOH, as a control. […] The concentration of PMA tested was 10 ng/ml. Samples not receiving PMA received DMSO.
Once the flasks were prepared, they were incubated at 37° C. 5% CO2 for four hours. At the four hour timepoint, 300 μl of cells were removed from each flask and pelleted at 5000 rpm for 5 minutes. The cells were then resuspended in 6 ml PBS/1% BSA and 60 μl trypan blue.

The subject of data set [2] is CD11b expression in HL-60 cells. Description: FACS CD11b expression profile. Particulars: 1% DMSO. It counts as cell-based. On the procedure:
(§1) Fast scan analysis was also performed on HL-60 cells that were treated with PMA and DMSO. A time course evaluation of PMA treated HL-60 cells was performed with fast scan data taken at 16 hours, 24 hours, 40 hours, and 72 hours post-treatment with 400 ng/ml PMA. A control sample of HL-60 cells was also tested using EtOH as the vehicle for purposes of comparing the differentiated cells with the undifferentiated HL-60 cells. The PMA-treated and control cells were harvested and trypsinized. The samples were then resuspended in PBS/1% BSA. A set of samples was also obtained and left as pellets at 4° C. for subsequent FACS analysis.
FIG. 145 illustrates a histogram of the travel distance of the control cells as well as the PMA-treated cells at 16 hours, 24 hours, 40 hours, and 72 hours post-treatment. FIG. 146 illustrates the mean travel distances of the control cells as well as the PMA-treated cells at 16 hours, 24 hours, 40 hours, and 72 hours post-treatment. FIG. 147 illustrates the FACS CD11b expression profile in PMA-treated HL-60 cells as well as the control. CD11b is a known marker of cellular differentiation and is expressed on the surface of differentiating cells. […] The data illustrate that Optophoretic analysis can be used as an assay for the detection and quantification of cellular differentiation. […]

In a further data set the test system is HL-60 cells. Description: Fast scan analysis, differentiation of HL-60 cells. Particulars: 1% DMSO. It counts as cell-based. On the procedure:
as §1
A time course evaluation of DMSO treated HL-60 cells was performed with fast scan data taken at 16 hours, 24 hours, 40 hours, and 70 hours post-treatment with 1% DMSO. A control sample of HL-60 cells was also tested for purposes of comparing the differentiated cells with the undifferentiated HL-60 cells. The DMSO-treated and control cells were then harvested and resuspended in PBS/1% BSA. A set of samples was also obtained and left as pellets at 4° C. for subsequent FACS analysis.

For data set [3], the system named is Erythromycin-resistant strain. As to the kind of experiment: Bacterial screen for drug sensitivity, escape velocity. In kind it is cell-based, Staphylococcus aureus. Conditions: 5 μg/ml Erythromycin. The procedure:
(§2) In this experiment, escape velocity was measured over time in wild type Staphylococcus aureus and an Erythromycin-resistant strain. 5 μg/ml of Erythromycin was applied to both the wild type Staphylococcus aureus and an Erythromycin-resistant strain. Escape velocity measurements were taken at time zero, 30 minutes post-treatment, and 3 hours post-treatment. […] In this experiment, however, escape velocity measurements were made at time zero, 30 minutes post-treatment, and 1 hour post-treatment, and 2 hours post-treatment. A reduction in escape velocity of the Erythromycin-sensitive strain can be seen at 1 hour post-treatment.

Data set [4] concerns wild type Staphylococcus aureus. Described as above. Conditions: 5 μg/ml Erythromycin. In kind it is cell-based. On the procedure: as §2
Data set [5] has as its system K562, BV-173, EM-3, and U-937 cells. As to the kind of experiment: Escape velocity, effect of Gleevec. Particulars: 72 hours after exposure, all four cell types. It counts as cell-based. The text has this: The U-937 cells have no copies of the gene. The K-562 line of cells has, on average, one copy of the gene per cell. The BV-173 line of cells has, on average, three copies of the gene per cell. The EM-3 cell line has, on average, five copies of the gene per cell. […] FIG. 44 illustrates the measured escape velocities (average) for each of the four cell types. […] In addition, the decrease in escape velocity for the Gleevec-treated cells was more pronounced in those cell lines that had higher copy numbers of the Bcr-Abl gene.

Data set [6] concerns K-562, BV-173, EM-3, and U-937 cell lines. Description: Fast scan analysis, effect of Gleevec. Conditions: 1 μM Gleevec, 48 hours, U-937 cells excepted. In kind it is cell-based. The text has this: (§3) FIGS. 30A and 30B show optical interrogation of a group of cells 610 using a fast scan analysis. In this method, a moving optical gradient 612 (laser beam) in the form of a line is moved relative to the cells 610. […] Instead, an image can be taken of the cells 610 prior to the scan to determine the starting position of each cell 610. […] The distances traveled can be obtained by images taken of the cells 610 before and after the scanning process. The optical gradient 612 is moved at a speed that is higher than the escape velocity of all the cells 610 within the group. In this manner, all of the cells 610 are left behind the moving optical gradient 612. In an alternate fast scan embodiment, the cells 610 are initially lined up at a starting position A. After aligning the cells 610, the optical gradient 612 is rapidly moved and their distance of travel is measured by optical imaging. It should be understood that fast scan analysis may include multiple scans or “sweeps” of the cells 610. Generally, it has been observed that multiple scans produce larger cell movements.

The test system of the next data set is Jurkat cells. As to the kind of experiment: Escape velocity, TNF-α effect on Jurkat cells. It counts as cell-based. Particulars: TNF inhibitor added with TNF. The procedure: After 48 hours of incubation, the cells were removed and centrifuged for 5 minutes at 5,000 rpm. Then the cells were resuspended in PBS/1% BSA and trypan blue. A higher power setting, 140 mW instead of 100 mW, was used for this experiment. The escape velocities were measured as follows:
In this experiment Leflunomide and Silymarin were added with TNF to see if the anticipated increase in escape velocity measurements could be counteracted by the presence of the TNF inhibitors.

In data set [7] the test system is U937 cells. The procedure: This experiment is designed to compare the effects of two concentrations of sodium salicylate on U937 cells. Sodium salicylate was prepared at two concentrations: 20 mM and 5 mM. The escape velocities of the cells was tested at 5 hours, 24 hours and 47 hours. At each timepoint, 30 μl of sample was pelleted at 5,000 rpm for 5 minutes and then resuspended in PBS/1% BSA and trypan blue.

Data set [8] has as its system Chang liver cells. Description: Escape velocity, toxicity of ketoconazole to liver cells. It counts as cell-based, human. Particulars: 1 μm of ketoconazole, 1.5 hours of treatment. On the procedure:
This experiment is designed to test the effect of ketoconazole on human liver cells. Ketoconazole induces toxicity in liver cells. The sample cells were Chang liver cells. The concentration of ketoconazole used to treat the cells was 1 μm. Escape velocity and fast scan protocols were applied to determine the impact, if any, of ketoconazole treatment. […] Consequently, Optophoresis was able to detect an effect on the escape velocity of treated cells within 1.5 hours of exposure to ketoconazole. FIGS. 44-45 show the fast scan results of ketoconazole-treated Chang liver cells. […] The ketoconazole-treated cells generally traveled a smaller distance as compared to the non-treated control.

Data set [9] relates to Chang liver cells. In kind it is cell-based. Particulars: human, 1 μm.
Excerpt: as §3
This experiment is designed to test the effect of ketoconazole on human liver cells. Ketoconazole induces toxicity in liver cells. The sample cells were Chang liver cells. The concentration of ketoconazole used to treat the cells was 1 μm. […]

For a further data set, the system named is CCRF-CEM. Description: Escape velocity, topotecan on sensitive cell line. In kind it is cell-based. Conditions: 10 μM topotecan, 6 hours. The procedure:
In a fifth experiment, two different cell lines obtained from ATCC which have varying degrees of sensitivity to topoisomerase I inhibitors such as camptothecin and topotecan were subject to Optophoretic analysis. A group of cells from a parental cell line CCRF-CEM that is sensitive to camptothecin and topotecan were incubated for 6 hours with 10 μM topotecan. Another group of cells from the cell line CEM/C2, which are 970-fold less sensitive to camptothecin and topotecan, were also incubated for 6 hours with 10 μM topotecan. Control cells from both the CCRF-CEM and CEM/C2 cell lines were also tested. […] Escape velocity measurements were then taken using a 100 mW laser with a diameter of 28 pixels. […] Optophoretic analysis was thus able to score cross-resistance of camptothecin-resistant cell lines to topotecan, an analog of camptothecin.

In data set [10] the test system is U937 cells. Description: Escape velocity, characterization of topoisomerase inhibitors.
The subject of a further data set is CEM/C2. Particulars: CEM/C2 cell line obtained from ATCC; cited from earlier work.

Each structure is given as a SMILES string. Counter-ions that a name gives are not always drawn. Like-named read-outs stand apart in the source and are kept apart here.

On to `CN(C)CCCn1cc(C2=C(c3c[nH]c4ccccc34)C(=O)NC2=O)c2ccccc21` [Bisindolymalemide, Bisindolymaleimide], for which the “Escape velocity Ave.” value in the data set with U937 cells [1] (50 ng/ml bisindolymaleimide + 10 ng/ml PMA) came out at 15.1 μm/sec; with U937 cells [1] (50 ng/ml bisindolymaleimide, no PMA), 13.9 μm/sec; in the data set with U937 cells [1] (200 ng/ml bisindolymaleimide + 10 ng/ml PMA) it was 14.5 μm/sec; in the data set on U937 cells [1] (200 ng/ml bisindolymaleimide, no PMA), 14.0 μm/sec. The “effect on PMA-caused shift in escape velocity (FIG. 33)” value in the data set on U937 cells [1] (200 ng/ml BIMI for 30 minutes, then 10 ng/ml PMA) was “blocked the optophoretic shift in escape velocity”.

As to `C[S+](C)[O-]` [DMSO, dimethylsulfoxide], the “time after treatment at which a change in CD11b expression levels was detected” value in [2] was found to be 40 h. Moreover, the “time after treatment at which a noticeable decrease of the mean travel distance was detected” value with HL-60 cells is no more than 16 h.

As for `CC[C@H]1OC(=O)[C@H](C)[C@@H](O[C@H]2C[C@@](C)(OC)[C@@H](O)[C@H](C)O2)[C@H](C)[C@@H](O[C@@H]2O[C@H](C)C[C@H](N(C)C)[C@H]2O)[C@](C)(O)C[C@@H](C)C(=O)[C@H](C)[C@@H](O)[C@]1(C)O` [Erythromycin], the “escape velocity (FIG. 80)” value in [3] was “same escape velocity as the untreated Erythromycin-sensitive strain”. Moreover, the “time post-treatment at which a reduction in escape velocity can be seen (FIG. 81)” value in [4] amounted to 1 h. Further, the “change of escape velocity over time (FIG. 80)” value in data set [4] (time zero, 30 minutes, 3 hours) was “decreases”.

In the case of `Cc1ccc(NC(=O)c2ccc(CN3CCN(C)CC3)cc2)cc1Nc1nccc(-c2cccnc2)n1` [Gleevec, imatinib mesylate], the “escape velocity as compared to non-treated cells (FIG. 40)” value in data set [5] is reported as “significantly lower escape velocity”. Also, the “mean travel distances as compared to non-treated controls (FIG. 41)” value in data set [6] is “lower mean travel distances”.

In the case of `Cc1oncc1C(=O)Nc1ccc(C(F)(F)F)cc1` [Leflunomide], the “effect on TNF-caused increase in escape velocity (FIG. 36)” value with Jurkat cells was “mitigate the increase in escape velocity caused by TNF”.

With `O=C([O-])c1ccccc1O.[Na+]` [Sodium Salicylate, Sodium salicylate], the “shift in escape velocities (FIG. 37)” value in the data set with U937 cells [7] (5 mM and 20 mM, 5 and 24 hours) is “slight but statistically significant shift in escape velocities”. In addition, the “Escape velocity Ave.” value came to 14.1 with U937 cells [7] (5 mM, 5 hours); 15.2 with U937 cells [7] (5 mM, 24 hours); 13.7 in the data set with U937 cells [7] (5 mM, 47 hours); 13.3 in the data set on U937 cells [7] (20 mM, 5 hours); 16.0 with U937 cells [7] (20 mM, 24 hours). For the same compound, in the data set with U937 cells [7] (20 mM, 47 hours), the “cell viability (trypan blue)” value was “all cells were dead”.

Regarding `CC(=O)N1CCN(c2ccc(OCC3COC(Cn4ccnc4)(c4ccc(Cl)cc4Cl)O3)cc2)CC1` (stereo not shown) [ketoconazole], the “escape velocity vs control (FIG. 46)” value in the data set on Chang liver cells [8] is reported as “marked decrease in escape velocity”. The mean travel distance in the data set on Chang liver cells [9] is given as 20.97 μm.

With `CC[C@@]1(O)C(=O)OCc2c1cc1n(c2=O)Cc2cc3c(CN(C)C)c(O)ccc3nc2-1` [topotecan], the “decrease in escape velocity as compared to the CEM/C2 cells (FIG. 67)” value in the data set with CCRF-CEM is reported as “larger decrease in escape velocity”. Besides, the “shift in escape velocity as compared to the camptothecin-treated cells (FIG. 54)” value in the data set on U937 cells [10] (4 μg/ml, four hours) was “larger shift in escape velocity”. In addition, in the data set with U937 cells [10] (10 μM and 20 μM topotecan, six hours), the cellular debris entry is recorded as “a significant amount of cellular debris was present”. Further, the cell death entry with U937 cells [10] (10 μM topotecan, 24 hour) is “virtually all of the treated U937 cells were dead”. For the same compound, the “dead or necrotic cells” value with U937 cells [10] (2.5, 5 and 10 μM topotecan, 4 hour) is on record as “not a significant number of dead or necrotic cells”. Also, in the data set on CEM/C2, the “less sensitive than parental cell line CCRF-CEM” value is on record as 970 fold.
